Source: PMC7311950, “Potent Tetrahydroquinolone Eliminates Apicomplexan Parasites” (Frontiers in Cellular and Infection Microbiology, 2020)
Like-named read-outs stand apart in the source and are kept apart here.

Tests used:
[1] = test system: Human Foreskin Fibroblast (HFF); assay: Cytotoxicity assay, WST-1 cell proliferation reagent on HFF; assay type: cell-based
Experimental: Toxicity assays used WST-1 cell proliferation reagent (Roche) as in Fomovska et al. ([2012a]). HFF were grown on a flat, clear-bottomed, black 96-well plate. Confluent HFF were treated with inhibitory compounds at concentrations of 10 and 50 μM. Compounds were diluted in IMDM-C, and 20 μL were added to each designated well, with triplicates for each condition. A gradient with 2-folddecreasing concentrations of DMSO from 10 to 0% in colorless, translucent IMDM-C was used as a control. The plate was incubated for 72 h at 37°C. Ten microlitre WST-1 reagent (Roche) were added to each well. Cells were incubated for 30–60 min. Absorbance was read using a fluorimeter at 420 nm. A higher degree of color change (and absorbance) indicated mitochondrial activity and cell viability.

[2] = test system: T. gondii RH-YFP tachyzoites; assay: In vitro challenge assay, RH strain YFP tachyzoites in HFF; assay type: cell-based; details: Toxoplasma gondii; RH-YFP tachyzoites in HFF; Figure 1A; read-out: Tachy IC50
Experimental: RH strain YFP Tachyzoites. Protocol was adapted from Fomovska et al. ([2012a],[b]) for HFF. HFF were cultured on a flat, clear-bottomed, black 96-well plate to 90–100% confluence. IMDM (1x, [+] glutamine, [+] 25 mM HEPES, [+] Phenol red, 10% FBS [Gibco, Denmark]) was removed and replaced with IMDM-C(1x, [+] glutamine, [+] 25 mM HEPES, [–] Phenol red, 10% FBS)[Gibco, Denmark]). RH-YFP, lysed from host cells by passing twice through a 27-gauge needle, were counted, then diluted to 32,000/mL in IMDM-C. HFF were infected with 3200 RH-YFP, then returned to 37°C, CO2 (5%) incubator for 1–2 h for infection. Various concentrations of the compounds in 20 μL IMDM-C were added to each well. There were triplicates for each condition. Controls were pyrimethamine/sulfadiazine (standard treatment), 0.1% DMSO only, HFF only, and untreated cultures of HFF infected with 2-fold dilutions of YFP expressing parasites (called “YFP gradient” to establish amount of color from known numbers of YFP expressing parasites). Cells were incubated at 37°C for 72 h. Plates were read using a fluorimeter (Synergy H4 Hybrid Reader, BioTek) to ascertain amount of relative fluorescence units (RFU) YFP, to measure parasite burden after treatment. Data were collected using Gen5 software with IC50 calculated by graphical analysis in Excel.
An initial screening assay of 10 μM, 1 μM, 100 nM, and 10 nM of the compounds was performed. Compounds were not considered effective or pursued for further analysis if there was no inhibition of tachyzoites at 1 μM. If compounds were effective at 1 μM, another experiment was performed to assess effect at 1 μM, 500, 250, 125, 62.5, and 31.25 nM.

[3] = test system: P. falciparum strains D6, TM91-C235, W2, C2B; assay: Malaria SYBR Green I-Based Fluorescence (MSF) assay; assay type: cell-based; details: Plasmodium falciparum
Experimental: Malaria potency testing in vitro was performed using 4 different P. falciparum strains, D6, TM91-C235, W2, and C2B. The D6 strain is a drug sensitive strain from Sierra Leone, the TM91-C235 strain is a multi-drug resistant strain from Thailand, the W2 strain is a chloroquine resistant strain from Thailand, and the C2B strain is a multi-drug resistant strain with resistance against atovaquone. These assays were performed as described below.
Compound activity against P. falciparum, was tested using the Malaria SYBR Green I–Based Fluorescence (MSF) Assay. The complete method for performing this microtiter assay is described in previous work published by Plouffe et al. ([2008]) and Johnson et al. ([2007]). In brief, this assay uses the binding of the fluorescent dye SYBR Green I to malaria DNA to measure parasite growth in the presence of 2-fold diluted experimental or control. The relative fluorescence of the intercalated SYBR Green I proportional to parasite growth, and inhibitory compounds will result in lower observed fluorescence compared to untreated parasites.

[4] = test system: T. gondii mitochondrial membrane potential; assay: T. gondii mitochondrial membrane potential, safranine method; assay type: cell-based, Toxoplasma gondii; details: doses as high as 4 μM
Experimental: The mitochondrial membrane potential was measured by the safranine method according to Vercesi et al. ([1998]). Freshly egressed T. gondii tachyzoites were filtered and washed twice with intracellular buffer (125 mM sucrose, 65 mM KCl, 10 mM HEPES-KOH buffer, pH 7.2, 1 mM MgCl2, and 2.5 mM potassium phosphate). After washing, the parasites were resuspended in the same buffer at 10^9/mL. An aliquot of 50 μL of this suspension was added to a cuvette containing Safranin O, 2.5 μM and Succinate 1 mM in final volume of 2 mL of the intracellular buffer. The fluorescence was measured with a Hitachi 7000 spectrofluorometer with settings Ex. 495/Em. 586. Once the baseline fluorescence was stable, 30 μM digitonin was added to permeabilize the parasites. Eighty five seconds after permeabilization, the THQ derivatives, dissolved in DMSO, were added. Five micromolars of FCCP (Carbonyl cyanide-4-(trifluoromethoxy) phenylhydrazone) was used as an uncoupler reference for calculations and its effect was considered 100%. We used similar conditions for measuring the mitochondrial membrane potential of mammalian cells with the following changes: the mammalian cells were resuspended at 10^8/mL. We also used 50 μL of this suspension for each experiment in a total volume of 2 mL. The substrate used for mammalian cells was 5 mM glutamate and 5 mM malate. A higher concentration of digitonin (50 μM) was used to permeabilize the mammalian cells. The compounds were added at ~400 s after permeabilization. Each experiment was repeated at least three times in duplicates. Statistical analysis, unpaired student t-test, was performed using GraphPad Prism 8.0 (GraphPad Software, Inc., San Diego, CA).
Mitochondrial membrane potential measurements were performed with permeabilized T. gondii tachyzoites in suspension using safranin O, which loads into polarized membranes [see section Materials and Methods in the Supplemental Materials (Vercesi et al., [1998])]. T. gondii tachyzoites were permeabilized with digitonin to allow the mitochondrial substrate succinate to cross the membrane and energize the mitochondrion. The fluorescence of safranin O, which loads into energized mitochondria was used to measure the membrane potential. The energized state of the mitochondrion is observed by a decrease in fluorescence (Figures 3A,C,E). Trifluoromethoxy carbonylcyanide phenylhydrazone (FCCP) was used to depolarize the membrane, which is observed as an increase in fluorescence (Figures 3A,B). JAG21 depolarized the membrane potential even at concentrations as low as 2 nM (Figures 3C,D). JAG21 and Atovaquone had similar effects on the mitochondrial membrane potential (Figure 3D). […]

[5] = test system: T. gondii RPS13Δ; assay: RPS13Δ infection of interferon γ receptor knockout mice; assay type: in vivo, Toxoplasma gondii; details: mice to start 5 (Tafenoquine), 5 (JAG21)
Experimental: In pilot studies, herein, interferon γ receptor knockout mice that were not treated were observed following infection. At 7 and at 14 days following infection, spleen, and liver were removed and immune peroxidase stained. At 14 days a group of mice were treated with anhydrotetracycline and when a subset of these mice died, their spleen and liver were removed and immune peroxidase stained.
As in the pilot studies, this RPS13 Δ parasite also was used to infect interferon γ receptor knockout mice in a treatment study. In this separate study, groups of mice were infected with RPS13 Δ. They were treated with tafenoquine on day−1, or JAG21 for 14 days 2 h after infection, or the two together with tafenoquine on day−1 and JAG21 for the first 14 days, or with diluent only for 14 days, as described above. For the initial 14 days, no tetracycline was administered. After that time tetracycline was administered. Mice were observed each day. At the time they appeared to have substantial illness or at the termination of the experiment they were euthanized, tissues fixed in formalin and stained with hematoxylin and eosin or immunoperoxidase stained and parasite burden was assessed.

[6] = C2B, multi-drug resistant strain with resistance against atovaquone, read-out: SYBR Green C2B IC50
[7] = D6, drug sensitive strain, read-out: SYBR Green D6 IC50
[8] = TM91-C235, multi-drug resistant strain, read-out: SYBR Green C235 IC50
[9] = W2, chloroquine resistant strain, read-out: SYBR Green W2 IC50

| SMILES | Toxicity [1] [µM] | IC50 [2] [µM] | IC50 [3, 6] [µM] | IC50 [3, 7] [µM] | IC50 [3, 8] [µM] | IC50 [3, 9] [µM] | effect on mitochondrial membrane potential [4] | number of mice left at 42 ([5]; Experiment 1, 6 (Tafenoquine+JAG21)) | number of mice left at 37 ([5]; Experiment 2, 9 (Tafenoquine+JAG21)) |
| --- | --- | --- | --- | --- | --- | --- | --- | --- | --- |
| COc1ccc(Oc2ccc(-c3c(C)[nH]c4c(c3=O)CCCC4)cc2)cc1OC [AS033] | 5 |  |  |  |  |  |  |  |  |
| Cc1[nH]c2c(c(=O)c1-c1ccc(Oc3ccc(C(=O)O)cc3)cc1)CCCC2 [JAG046] |  | > 10 | > 20 | 6.72 | > 20 | > 20 | almost no effect |  |  |
| Cc1[nH]c2c(c(=O)c1-c1ccc(Oc3cccc(C(=O)O)c3)cc1)CCCC2 [JAG047] |  | > 10 | 7.78 | 3.75 | 12.6 | 9.07 | almost no effect |  |  |
| COc1cc(C)c2c(Oc3cccc(C(F)(F)F)c3)c(OC)cc(NC(C)CCCN)c2n1 (stereo not drawn) [TAF, tafenoquine, reference compound] |  |  |  |  |  |  |  | 1 | 2 |
